“Also recorded” adds a separate entry of the source.
Tests used:
[1] = tested on: influenza virus; assay type: cell-based; settings: for reduction of virus yield: 3.16 µM, 48 hours, MDCK, TCID50
[2] = molecular target: hemagglutinin of influenza virus (Influenza A virus (H1N1), UniProt Q0HD60); assay type: cell-based; settings: for effect on hemolysis (negative controls): data not shown
[3] = tested on: Influenza A/PR/8/34 (H1N1); assay: microbe, parasite or virus in culture; assay type: cell-based; settings: MDCK, 72 h, read-out: CPE (EC50) A/PR/8/34 (H1N1)
[4] = tested on: Influenza A/Weiss/43 (H1N1); assay type: cell-based, Influenza A virus
[5] = molecular target: Bromelain-cleaved HA (BHA) (Influenza A virus (H1N1), UniProt Q0HD60); assay type: biochemical
[6] = tested on: Influenza A/Weiss/43 (H1N1); assay type: cell-based, Influenza A virus; remark: listed apart in the source
[7] = tested on: viral hemagglutinin binding to sialic acid receptors of chicken erythrocytes; assay type: cell-based, influenza virus; settings: 10 µM, regardless of viral dilution; data not shown
[8] = tested on: Influenza A/Mal/302/54 (H1N1); assay: microbe, parasite or virus in culture; assay type: cell-based; settings: H1N1, MDCK, 72 h, read-out: CPE (EC50) A/Mal/302/54 (H1N1)
[9] = tested on: Influenza A/Human/Hubei/3/2005 (H3N2); assay: microbe, parasite or virus in culture; assay type: cell-based, Influenza A virus; settings: for EC50: Influenza A virus, H3N2, MDCK, 72 h, read-out: CPE (EC50) A/Human/Hubei/3/2005 (H3N2)
[10] = tested on: Influenza A/Hongkong/8/68 (H3N2); assay: microbe, parasite or virus in culture; assay type: cell-based, Influenza A virus; settings: for EC50: Influenza A virus, H3N2, MDCK, 72 h, read-out: CPE (EC50) A/Hongkong/8/68 (H3N2)
[11] = Repeated oral dosing of mice without virus challenge (survival, body weight); assay type: in vivo; settings: 200 mg/kg and 50 mg/kg orally twice a day for 7 days, monitored 14 days
Description: Survival of the treated animals and body weight were monitored for 14 days starting from the first day of compound dosing.

[12] = in vivo; settings: male, CD-1, mouse
[13] = tested on: Influenza A/New Jersey/8/76 (H1N1); assay: microbe, parasite or virus in culture; assay type: cell-based; settings: H1N1, MDCK, 72 h, read-out: CPE (EC50) A/New Jersey/8/76 (H1N1)
[14] = mouse, in vivo
[15] = tested on: influenza virus; assay: microbe, parasite or virus in culture; assay type: cell-based; settings: unidentified influenza virus, read-out: in vitro EC90

hemagglutinin of influenza virus, sequence (Q0HD60 18-343, added parts left off): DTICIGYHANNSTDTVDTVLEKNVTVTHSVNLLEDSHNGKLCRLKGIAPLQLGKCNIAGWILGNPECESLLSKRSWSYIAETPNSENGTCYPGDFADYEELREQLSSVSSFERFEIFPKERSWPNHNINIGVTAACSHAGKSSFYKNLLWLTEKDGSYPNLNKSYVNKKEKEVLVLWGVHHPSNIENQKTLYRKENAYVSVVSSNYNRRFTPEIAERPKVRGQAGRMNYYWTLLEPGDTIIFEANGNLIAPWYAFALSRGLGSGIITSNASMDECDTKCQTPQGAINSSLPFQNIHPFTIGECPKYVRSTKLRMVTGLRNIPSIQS
Bromelain-cleaved HA (BHA), sequence (Q0HD60 18-343, added parts left off): as above

SMILES	reduction of virus yield [1] [log]	effect on hemolysis (negative controls) [2]	EC50 [3] [nM]	dynamics of progeny virus production [1]	BHA trypsin sensitivity [5]	protection of BHA from trypsin digestion after acidification [5]	EC50 [8] [nM]	EC50 [9] [nM]	EC50 [10] [nM]	further results
CCOC(=O)C1=C[C@@H](OC(CC)CC)[C@H](NC(C)=O)[C@@H](N)C1 [Oseltamivir]	5	did not show any effect on hemolysis	–	–	–	–	–	–	–	–
CC1(C)CC(O)CC(C)(CNc2cccc(S(N)(=O)=O)c2)C1 (stereo not shown) [RO5464466, 3-[(5-Hydroxy-1,3,3-trimethyl-cyclohexylmethyl)-amino]-benzenesulfonamide]	8	–	580	strong inhibition at all time points	+	completely protected HA from trypsin digestion	660	> 100000	> 100000	plaque formation [4]: completely protected cell monolayer against cell death (no visible plaques); also recorded: still inhibited virus infection; protection of BHA from trypsin-caused degradation at different pH [5]: effectively protected BHA from trypsin-caused degradation throughout the tested pH values, except pH 4.5; effect on virus replication in one cycle [6]: completely blocks virus replication; inhibitory effect on hemagglutination [7]: did not have an inhibitory effect on hemagglutination; inhibitory effect on replication of A/Human/Hubei/3/2005 (H3N2) in CPE assay [9]: failed to exhibit an apparent inhibitory effect; inhibitory effect on replication of A/Hongkong/8/68 (H3N2) in CPE assay [10]: failed to exhibit an apparent inhibitory effect; HA-mediated hemolysis ([2]; 10 µM, pH 5.03, 5.05, 5.1 and 5.2): completely blocked
CC1(C)C[C@H](O)C[C@](C)(CNc2ccc(Cl)c(S(N)(=O)=O)c2)C1 [RO5487624]	–	–	210	–	+	completely protected HA from trypsin digestion	450	> 100000	> 100000	animal death and body weight changes [11]: did not find any animal death and statistically significant body weight changes; bioavailability [12]: > 70%; AUC(0-inf) ([12]; iv, 2 mg/kg): 629 ng·h/mL; AUC(0-t) ([12]; iv, 2 mg/kg): 587 ng·h/mL; EC50 [13]: 90 nM; C max and AUC in plasma versus oral dose [14]: increased in a dose-dependent manner; EC90 [15]: 300 nM
NC(=O)c1ncn([C@@H]2O[C@H](CO)[C@@H](O)[C@H]2O)n1 [Ribavirin]	–	did not show any effect on hemolysis	–	became weaker	–	failed to show a protective effect on BHA	–	–	–	inhibition of progeny virus production [1]: strongly inhibited progeny virus production

Source: paper PMC3240648, “Inhibition of Influenza A Virus (H1N1) Fusion by Benzenesulfonamide Derivatives Targeting Viral Hemagglutinin” (PLoS ONE, 2011)
